Reference: ChEMBL document CHEMBL1201862, “PubChem BioAssay data set” (2004)
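Results reflect a 48-hour exposure of cells in 96-well plates to compound at five concentrations. Abbreviation: GI50, concentration required for 50% inhibition of growth.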 Calls of active or inactive are those of the source. No stated cut-off is given here; in the data, active = GI50 up to about 1.1 µM and inactive = higher. Where a SMILES comes first, the peptide text is derived from it. [ ]: non-standard residue; d: D form. The star is where a group is joined. ξ: configuration not given here. ξNMe2Val = CC(C)C(C(=O)*)N(C)C; NMeV = CN[CH](C(=O)O)C(C)C; NHBn = c1ccc(CN*)cc1

Tests used:
Experiment in all cases: inhibition of tumour cell growth, NCI panel, 48 h
[1] = tested on: 786-0
[2] = tested on: A498
[3] = tested on: A549
[4] = tested on: ACHN
[5] = tested on: BT-549
[6] = tested on: CAKI-1
[7] = tested on: CCRF-CEM
[8] = tested on: COLO 205
[9] = tested on: DU-145
[10] = tested on: EKVX
[11] = tested on: HCC 2998
[12] = tested on: HCT-116
[13] = tested on: HCT-15
[14] = tested on: HOP-62
[15] = tested on: HOP-92
[16] = tested on: HT-29
[17] = tested on: Hs-578T
[18] = tested on: IGROV-1
[19] = tested on: K562
[20] = tested on: KM12
[21] = tested on: LOX IMVI
[22] = tested on: M14
[23] = tested on: MCF7
[24] = tested on: MDA-MB-231
[25] = tested on: MDA-MB-435
[26] = tested on: MDA-N
[27] = tested on: MOLT-4
[28] = tested on: Malme-3M
[29] = tested on: NCI-H226
[30] = tested on: NCI-H23
[31] = tested on: NCI-H460
[32] = tested on: NCI-H522
[33] = tested on: NCI/ADR-RES
[34] = tested on: OVCAR-3
[35] = tested on: OVCAR-4
[36] = tested on: OVCAR-5
[37] = tested on: OVCAR-8
[38] = tested on: PC-3
[39] = tested on: RPMI-8226
[40] = tested on: RXF 393
[41] = tested on: SF-268
[42] = tested on: SF-295
[43] = tested on: SF-539
[44] = tested on: SK-MEL-28
[45] = tested on: SK-MEL-5
[46] = tested on: SK-OV-3
[47] = tested on: SN12C
[48] = tested on: SNB-19
[49] = tested on: SNB-75
[50] = tested on: SW-620
[51] = tested on: TK-10
[52] = tested on: U-251
[53] = tested on: UACC-257
[54] = tested on: UACC-62
[55] = tested on: UO-31
[56] = tested on: HL-60
[57] = tested on: SK-MEL-2
[58] = tested on: SR

## CC(C)C(=O)Oc1cc2c(=O)oc3c(OC(=O)C(C)C)c(OC(=O)C(C)C)cc4c(=O)oc(c1OC(=O)C(C)C)c2c34
[1]
  GI50: > 100 µM (inactive)
[2]
  GI50: > 100 µM (inactive)
[3]
  GI50: > 100 µM (inactive)
[4]
  GI50: > 100 µM (inactive)
[5]
  GI50: > 100 µM (inactive)
[6]
  GI50: > 100 µM (inactive)
[7]
  GI50: > 100 µM (inactive)
[8]
  GI50: > 100 µM (inactive)
[9]
  GI50: > 100 µM (inactive)
[10]
  GI50: > 100 µM (inactive)
[11]
  GI50: > 100 µM (inactive)
[12]
  GI50: > 100 µM (inactive)
[13]
  GI50: > 100 µM
[14]
  GI50: > 100 µM (inactive)
[15]
  GI50: > 100 µM (inactive)
[16]
  GI50: > 100 µM (inactive)
[17]
  GI50: > 100 µM (inactive)
[18]
  GI50: > 100 µM (inactive)
[19]
  GI50: > 100 µM (inactive)
[20]
  GI50: > 100 µM (inactive)
[21]
  GI50: > 100 µM (inactive)
[22]
  GI50: > 100 µM (inactive)
[23]
  GI50: > 100 µM (inactive)
[24]
  GI50: > 100 µM (inactive)
[25]
  GI50: > 100 µM (inactive)
[26]
  GI50: > 100 µM (inactive)
[27]
  GI50: > 100 µM (inactive)
[28]
  GI50: > 100 µM (inactive)
[29]
  GI50: > 100 µM (inactive)
[30]
  GI50: > 100 µM (inactive)
[31]
  GI50: > 100 µM (inactive)
[32]
  GI50: > 100 µM (inactive)
[33]
  GI50: > 100 µM (inactive)
[34]
  GI50: > 100 µM (inactive)
[35]
  GI50: > 100 µM (inactive)
[36]
  GI50: > 100 µM (inactive)
[37]
  GI50: > 100 µM (inactive)
[38]
  GI50: > 100 µM (inactive)
[39]
  GI50: > 100 µM (inactive)
[40]
  GI50: > 100 µM (inactive)
[41]
  GI50: > 100 µM (inactive)
[42]
  GI50: > 100 µM (inactive)
[43]
  GI50: > 100 µM (inactive)
[44]
  GI50: > 100 µM (inactive)
[45]
  GI50: > 100 µM (inactive)
[46]
  GI50: > 100 µM (inactive)
[47]
  GI50: > 100 µM (inactive)
[48]
  GI50: > 100 µM (inactive)
[49]
  GI50: > 100 µM (inactive)
[50]
  GI50: > 100 µM (inactive)
[51]
  GI50: > 100 µM (inactive)
[52]
  GI50: > 100 µM (inactive)
[53]
  GI50: > 100 µM (inactive)
[54]
  GI50: > 100 µM (inactive)
[55]
  GI50: > 100 µM (inactive)

## CC(C)C(NC(=O)C(C(C)C)N(C)C)C(=O)N(C)C(C(=O)N1CCCC1C(=O)N1CCCC1C(=O)NCc1ccccc1)C(C)C (centres undefined) (ξNMe2Val-V[NMeV]PP-NHBn; configuration not given here)
[1]
  GI50: < 0.0001 µM (active)
[2]
  GI50: < 0.01 µM (active)
[3]
  GI50: < 0.0001 µM (active)
[4]
  GI50: < 0.0001 µM (active)
[5]
  GI50: < 0.0001 µM (active)
[6]
  GI50: < 0.0001 µM (active)
[7]
  GI50: < 0.0001 µM (active)
[8]
  GI50: < 0.0001 µM (active)
[9]
  GI50: < 0.0001 µM (active)
[10]
  GI50: 0.0187 µM (active)
[11]
  GI50: < 0.0001 µM (active)
[12]
  GI50: < 0.0001 µM (active)
[13]
  GI50: < 0.0001 µM
[56]
  GI50: < 0.0001 µM (active)
[14]
  GI50: < 0.0001 µM (active)
[15]
  GI50: < 0.0001 µM (active)
[16]
  GI50: < 0.0001 µM (active)
[17]
  GI50: < 0.0001 µM (active)
[18]
  GI50: < 0.0001 µM (active)
[19]
  GI50: 0.001 µM (active)
[20]
  GI50: < 0.0001 µM (active)
[21]
  GI50: < 0.0001 µM (active)
[22]
  GI50: < 0.0001 µM (active)
[24]
  GI50: < 0.0001 µM (active)
[25]
  GI50: < 0.0001 µM (active)
[26]
  GI50: < 0.0001 µM (active)
[27]
  GI50: < 0.0001 µM (active)
[28]
  GI50: < 0.01 µM (active)
[29]
  GI50: < 0.0001 µM (active)
[30]
  GI50: < 0.0001 µM (active)
[31]
  GI50: < 0.0001 µM (active)
[32]
  GI50: < 0.01 µM (active)
[33]
  GI50: 0.00179 µM (active)
[35]
  GI50: 15.7 µM (inactive)
[36]
  GI50: 0.0675 µM (active)
[37]
  GI50: < 0.0001 µM (active)
[38]
  GI50: < 0.0001 µM (active)
[39]
  GI50: < 0.0001 µM (active)
[40]
  GI50: 0.0175 µM (active)
[41]
  GI50: < 0.0001 µM (active)
[42]
  GI50: < 0.0001 µM (active)
[43]
  GI50: < 0.01 µM (active)
[57]
  GI50: < 0.0001 µM (active)
[45]
  GI50: < 0.0001 µM (active)
[46]
  GI50: 0.000221 µM (active)
[47]
  GI50: < 0.0001 µM (active)
[48]
  GI50: < 0.01 µM (active)
[49]
  GI50: 0.172 µM (active)
[58]
  GI50: < 0.0001 µM (active)
[50]
  GI50: < 0.0001 µM (active)
[52]
  GI50: < 0.0001 µM (active)
[53]
  GI50: < 0.0001 µM (active)
[54]
  GI50: < 0.0001 µM (active)
[55]
  GI50: 0.0015 µM (active)
